Test results reported in US20140343089A1, “NOREPINEPHRINE AND SELECTIVE SEROTONIN RECEPTOR BLOCKER AND USE THEREOF” (priority 2011, published 2014).

Experiments:
[1] = system: ICR mice; assay: immobility time of tail suspension in mice; assay type: in vivo; conditions: i.p.; for immobility time of tail suspension in mice: 60 minutes after dosing
Description: (§1) Animals used for experiments were adult male ICR mice weighing 18˜25 g, housed in 8 pcs/cages, regulated with a 12/12 hour light/dark cycle, maintained at a constant temperature of 23±1° C. and a humidity of 50˜60% and allowed ad libitum access to rodent chow and water. After animals were purchased from the experimental animal center and performed an adaptive housing, the experiment was allowed to start.
(§2) After animal adaptive housing, all the animals were randomly divided into three groups:
(§3) Group one: negative control group, intraperitoneally injected with 1% DMSO in physiological saline (10.0 ml/kg, i.p.);
Group two: experimental drug group, the mice were intraperitoneally injected respectively with different doses of the test compound Co. 1: 0.1, 0.5, 1, 5 and 10 mg/kg, i.p., the drug was formulated in 1% DMSO in physiological saline;
(§4) Group three: positive drug control group, the mice were intraperitoneally injected with Desipramine (20 mg/kg, i.p., the drug was formulated in 1% DMSO in physiological saline).
The experiment employed Shanghai Jiliang animal behavior video analysis system, wherein the experimental environment was kept absolutely silent, when grabbing animals and administrating, movements were gentle to minimize adverse reactions of mental condition and emotion brought by external stimulus. 60 minutes after dosing, the site 20 mm from the tail end was fixed and the mice were hung upside-down in an activity box for 6 minutes. The immobility time in later 4 minutes was analyzed.

[2] = system: ICR mice; assay: spontaneous activity in mice; assay type: in vivo; conditions: each test dose (0.1, 0.5, 1, 5 and 10 mg/kg, i.p.); 60 minutes after dosing; P>0.05 compared with negative control
Description: as §1, §2, §3
Group two: experimental drug group, the mice were intraperitoneally injected respectively with different doses of test compound Co. 1: 0.1, 0.5, 1, 5 and 10 mg/kg, i.p., the drug was formulated in 1% DMSO in physiological saline. […]
The experiment employed Shanghai Jiliang animal behavior video analysis system, wherein the experimental environment was kept absolutely silent, when grabbing animals and administrating, movements were gentle to minimize adverse reactions of mental condition and emotion brought by external stimulus. […] The spontaneous activity box was connected to a recording apparatus and the activity conditions of mice within 30-60 minutes were recorded. The effects of drug or control substances on spontaneous activity in mice were determined.

[3] = hPPB; assay type: in vitro ADME; conditions: human plasma protein binding; read-out: hPPB % bound (converted)
[4] = rPPB; assay type: in vitro ADME; conditions: rat plasma protein binding; read-out: rPPB % bound (converted)
[5] = In vivo rat PK; conditions: for Cmax / half-life / bioavailability: po; for half-life: read-out: In vivo rat PK T½ (p.o.) (converted); for clearance: iv, read-out: In vivo rat PK CL (i.v.); for bioavailability: read-out: In vivo rat PK F %
Description: The experiment was repeated for three times and the mean value was taken.

[6] = system: ICR mice; assay: immobility time of forced swimming in mice; assay type: in vivo; conditions: i.p.
Description: as §1, §2, §3
Group two: experimental drug group, the mice were intraperitoneally injected respectively with different doses of test compound Co. 3: 0.1, 0.5, 1, 5 and 10 mg/kg, i.p., the drug was formulated in 1% DMSO in physiological saline;
as §4
The mice were placed in a large beaker with a height of about 40 cm and an internal diameter of about 19 cm, loaded with water with a temperature of 24˜25° C. inside. The water level reached 22 cm height (Porsolt et al., 1977). […] 30 minutes, or 60 minutes later, the mice were placed into a beaker loaded with water, and immobility time of animals within 5 minutes was measured. […]

[7] = from Zhao, Chinese Journal of Psychiatry, Vol. 35, No. 4; cited from earlier work
[8] = hMics binding; assay type: in vitro ADME; conditions: human microsomes; read-out: hMics binding % bound (converted)
[9] = rMics binding; assay type: in vitro ADME; conditions: rat microsomes; read-out: rMics binding % bound (converted)

| SMILES | fraction unbound [3] | fraction unbound [4] | Cmax [5] | half-life [5] | clearance [5] | bioavailability [5] | other results |
| --- | --- | --- | --- | --- | --- | --- | --- |
| CN1C[C@@H]2c3ncccc3Oc3cc(Cl)ccc3[C@@H]2C1 [Co. 1] | 0.13 | 0.2 | 51 ng/mL | 4.6 h | – | – | immobility time of tail suspension in mice ([1]; 0.1 and 0.5 mg/kg): no effect; immobility time of tail suspension in mice ([1]; 1.0, 5.0 and 10 mg/kg, P<0.05-0.01 compared to the negative control group): significantly inhibited; inhibitory effect on the immobility time of tail suspension compared to positive drug Desipramine ([1]; Desipramine 20 mg/kg): similar; spontaneous activity in mice [2]: no significant effect |
| CN1C[C@@H]2c3ncccc3Oc3ccccc3[C@@H]2C1 [Co. 2] | 0.45 | 0.63 | 17 ng/mL | 8.9 h | 139 mL/min/kg | 12% | – |
| CCN1C[C@@H]2c3ncc(C)cc3Oc3cc(F)c(C)cc3[C@@H]2C1 [Co. 3] | – | – | – | – | – | – | immobility time of forced swimming in mice ([6]; 0.5, 1.0, 5.0 and 10 mg/kg, P<0.05-0.01 compared to the negative control group): significantly extended; effect on immobility time of forced swimming compared to positive drug Desipramine ([6]; Desipramine 20 mg/kg, P<0.05): stronger |
| c1ccc2c(c1)Cc1cccnc1N1CCNCC21 (stereo not drawn) [Demethylated mirtazapine] | – | – | – | – | – | – | share of the drug activity of mirtazapine [7]: 3%-10% |
| CN1CCN2c3ncccc3Cc3ccccc3C2C1 (stereo not drawn) [Mirtazapine, reference compound] | 0.2 | 0.11 | 30 ng/mL | – | 101 mL/min/kg | 14% | fraction unbound [8]: 0.69; fraction unbound [9]: 0.79 |
